# Reference: patent publication US5061794A, “Cephalosporin derivatives, and antibacterial agents” (priority 1986, dated 1991)
# Like-named read-outs stand apart in the source and are kept apart here.
# Legend:
# [1] = system: Ps. cepacia 23; test: in vitro antibacterial activity, agar plate dilution method (MIC); type: cell-based, Pseudomonas cepacia; settings: read-out: Minimum Inhibitory Concentration (MIC)
# How it was run: (§1)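 Agar dilution: MH agar + graded drug conc.; inoculum 10^6 CFU/ml (overnight MH broth culture, one loopful); 37° C., 16 h; MIC, μg/ml.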
# [2] = system: E. coli NIHJ JC2; test: as above; type: cell-based; settings: Escherichia coli, NIHJJC2, 16 h, read-out: Minimum Inhibitory Concentration (MIC), E. coli NIHJ JC2, 10^6 CFU/ml, 37° C.
# How it was run: as §1
# [3] = system: E. coli GN5482; test: as above; type: cell-based; settings: Escherichia coli, GN5482, 16 h
# How it was run: as §1
# [4] = system: K. pneumoniae No. 42; test: as above; type: cell-based; settings: Klebsiella pneumoniae, NO.42, 16 h, read-out: Minimum Inhibitory Concentration (MIC), *K. pneumoniae No. 42, lactamase-producing strain; 10^6 CFU/ml
# How it was run: as §1
# [5] = system: E. cloacae 963; test: as above; type: cell-based; settings: Enterobacter cloacae, 963, 16 h, read-out: Minimum Inhibitory Concentration (MIC), E. cloacae 963; 10^6 CFU/ml
# How it was run: as §1
# [6] = system: E. cloacae Nek 39; test: as above; type: cell-based; settings: Enterobacter cloacae, NEK39, 16 h, 10^6 CFU/ml
# How it was run: as §1
# [7] = system: S. marcescens IAM 1184; test: as above; type: cell-based; settings: Serratia marcescens, IAM1184, 16 h, read-out: Minimum Inhibitory Concentration (MIC)
# How it was run: as §1
# [8] = system: K. pneumoniae PCI-602; test: as above; type: cell-based; settings: Klebsiella pneumoniae, PCI602, 16 h, read-out: Minimum Inhibitory Concentration (MIC), K. pneumoniae PCI-602; 10^6 CFU/ml
# How it was run: as §1
# [9] = system: M. morganii GN5407; test: as above; type: cell-based; settings: Morganella morganii, GN5407, 16 h, read-out: Minimum Inhibitory Concentration (MIC), *M. morganii GN5407, lactamase-producing strain; 10^6 CFU/ml
# How it was run: as §1
# [10] = system: S. marcescens No. 16-2; test: as above; type: cell-based; settings: Serratia marcescens, NO.162, 16 h
# How it was run: as §1
# [11] = system: P. vulgaris HX-19; test: as above; type: cell-based; settings: Proteus vulgaris, HX19, 16 h, read-out: Minimum Inhibitory Concentration (MIC)
# How it was run: as §1
# [12] = system: S. aureus 209P NIHJ-JC1; test: as above; type: cell-based; settings: Staphylococcus aureus, 16 h
# How it was run: as §1
# [13] = system: P. vulgaris No. 33; test: as above; type: cell-based; settings: Proteus vulgaris, NO.33, 16 h, read-out: Minimum Inhibitory Concentration (MIC), *P. vulgaris No. 33, lactamase-producing strain; 10^6 CFU/ml
# How it was run: as §1
# [14] = system: K. oxytoca GN10650; test: as above; type: cell-based; settings: Klebsiella oxytoca, 10^6 CFU/ml
# How it was run: as §1
# [15] = system: E. coli CSH2 (RK1); test: microbe, parasite or virus in culture; type: cell-based; settings: Escherichia coli, 16 h, read-out: Minimum Inhibitory Concentration (MIC), *E. coli CSH2 (RK1), lactamase-producing strain; 10^6 CFU/ml
# How it was run: as §1
# [16] = system: E. coli CSH(RE45); test: microbe, parasite or virus in culture; type: cell-based; settings: Escherichia coli, 16 h, read-out: Minimum Inhibitory Concentration (MIC), *E. coli CSH(RE45), lactamase-producing strain; 10^6 CFU/ml
# How it was run: as §1
# [17] = system: A. calcoaceticus No. 4; test: in vitro antibacterial activity, agar plate dilution method (MIC); type: cell-based, Acinetobacter calcoaceticus; settings: Acinetobacter calcoaceticus, NO.4, 16 h, 10^6 CFU/ml
# How it was run: as §1
# [18] = system: Ps. aeruginosa AKR17; test: as above; type: cell-based, Pseudomonas aeruginosa; settings: Pseudomonas aeruginosa
# How it was run: as §1
# [19] = system: Ps. aeruginosa AK 109; test: as above; type: cell-based, Pseudomonas aeruginosa; settings: Pseudomonas aeruginosa, AK109, 16 h
# How it was run: as §1
# [20] = system: Ps. aeruginosa IF03445; test: as above; type: cell-based, Pseudomonas aeruginosa; settings: Pseudomonas aeruginosa, 10^6 CFU/ml
# How it was run: as §1
# [21] = Burkholderia cepacia, 16 h, Ps. cepacia 23, 10^6 CFU/ml
# [22] = read-out: Minimum Inhibitory Concentration (MIC), *E. coli GN5482, lactamase-producing strain, 10^6 CFU/ml
# [23] = read-out: Minimum Inhibitory Concentration (MIC), *E. cloacae Nek 39, lactamase-producing strain
# [24] = S. marcescens IAM 1184, 10^6 CFU/ml
# [25] = read-out: Minimum Inhibitory Concentration (MIC), *S. marcescens No. 16-2, lactamase-producing strain, 10^6 CFU/ml
# [26] = read-out: Minimum Inhibitory Concentration (MIC), S. aureus 209P NIHJ-JC1, 10^6 CFU/ml, 37° C., 16 hours
# [27] = GN10650, 16 h, read-out: Minimum Inhibitory Concentration (MIC), *K. oxytoca GN10650, lactamase-producing strain
# [28] = A. calcoaceticus No. 4, read-out: Minimum Inhibitory Concentration (MIC)
# [29] = 16 h, Ps. aeruginosa AKR17, 10^6 CFU/ml, read-out: Minimum Inhibitory Concentration (MIC)
# [30] = read-out: Minimum Inhibitory Concentration (MIC)
# [31] = IF03445, 16 h, read-out: Minimum Inhibitory Concentration (MIC), Ps. aeruginosa IF03445
# [32] = *S. marcescens No. 16-2, lactamase-producing strain, 10^6 CFU/ml, read-out: Minimum Inhibitory Concentration (MIC)
# [33] = Ps. aeruginosa AK 109, 10^6 CFU/ml, read-out: Minimum Inhibitory Concentration (MIC)
# [34] = 16 h, Ps. aeruginosa IF03445, read-out: Minimum Inhibitory Concentration (MIC)
Structure (SMILES),"MIC [1, 21] [µg/mL]",MIC [2] [µg/mL],"MIC [3, 22] [µg/mL]",MIC [4] [µg/mL],MIC [5] [µg/mL],"MIC [6, 23] [µg/mL]","MIC [7, 24] [µg/mL]",MIC [8] [µg/mL],MIC [9] [µg/mL],"MIC ([11]; P. vulgaris HX-19, 10^6 CFU/ml) [µg/mL]","MIC [12, 26] [µg/mL]",MIC [13] [µg/mL],"MIC [14, 27] [µg/mL]",MIC [15] [µg/mL],MIC [16] [µg/mL],"MIC [17, 28] [µg/mL]","MIC [18, 29] [µg/mL]","MIC [19, 30] [µg/mL]","MIC [20, 31] [µg/mL]","MIC ([1]; Burkholderia cepacia, 23, 16 h) [µg/mL]",other results
"CON=C(C(=O)NC1C(=O)N2C(C(=O)O)=C(CSc3ncc(-c4ccc(O)c(O)c4)o3)CSC12)c1csc(N)n1 (stereo not drawn) [Ex. 62, sodium 75-[2-(2-aminothiazol-4-yl)-2-methoxyiminoacetamido]-3-[5-(3,4-dihydroxyphenyl)-oxazol-2-yl]thiomethyl-3-cephem-4-carboxylate]",< 0.006,0.2,1.56,0.025,0.05,0.78,0.025,< 0.006,0.1,< 0.006,1.56,0.025,3.12,0.025,0.05,0.2,> 100,3.12,1.56,,"MIC [10, 25]: 6.25 µg/mL"
"CCON=C(C(=O)N[C@@H]1C(=O)N2C(C(=O)[O-])=C(CSc3nc(-c4ccc(OC(C)=O)c(OC(C)=O)c4)cs3)CS[C@H]12)c1csc(N)n1.[Na+] [Ex. 49, sodium 3-[4-(3,4-diacetoxyphenyl)-thiazol-2-yl]thiomethyl-7β-[2-(2-aminothiazol-4-yl)-2-ethoxyiminoacetamido]-3-cephem-4-carboxylate]",,0.39,1.56,0.05,0.1,0.78,,< 0.006,0.1,,1.56,0.05,6.25,0.025,0.05,,,,0.78,0.05,"MIC [7]: 0.1 µg/mL; MIC [10, 30]: 3.12 µg/mL; MIC [11]: 0.0125 µg/mL; MIC ([17]; read-out: Minimum Inhibitory Concentration (MIC), A. calcoaceticus No. 4): 0.39 µg/mL; MIC ([18]; AKR17, 16 h, read-out: Minimum Inhibitory Concentration (MIC)): 100 µg/mL; MIC ([19]; read-out: Minimum Inhibitory Concentration (MIC), Ps. aeruginosa AK 109, 10^6 CFU/ml): 0.78 µg/mL"
"CO/N=C(\C(=O)N[C@@H]1C(=O)N2C(C(=O)O)=C(CSc3nc(-c4ccc(O)cc4)c(CC(=O)O)s3)CS[C@H]12)c1csc(N)n1 [compound 17, disodium 7β-[2-(2-aminothiazol-4-yl)-2-methoxyminoacetamido]-3-[5-carboxylatemethyl-4-(4-hydroxyphenyl)thiazol-2-yl]thiomethyl-3-cephem-4-carboxylate, reference compound]",,0.39,,0.78,0.39,12.5,,0.1,0.39,< 0.006,,0.1,,0.39,0.78,100,> 100,,,6.25,"MIC [3, 30]: 3.12 µg/mL; MIC [7]: 0.39 µg/mL; MIC [10, 32]: 100 µg/mL; MIC [12, 30]: 3.12 µg/mL; MIC ([14]; 16 h, *K. oxytoca GN10650, lactamase-producing strain, read-out: Minimum Inhibitory Concentration (MIC)): 25 µg/mL; MIC [19, 33]: 50 µg/mL; MIC [20, 34]: 50 µg/mL"
"Nc1nc(/C(=N/OC(C(=O)O)c2ccc(O)c(O)c2)C(=O)N[C@@H]2C(=O)N3C(C(=O)O)=C(CSc4ncc(-c5ccc(O)c(O)c5)o4)CS[C@H]23)cs1 (stereo partly drawn) [Ex. 65, disodium 7β-(2-(2-aminothiazol-4-yl)-2-[(α-carboxylate-3,4-dihydroxybenzyl)oxyiminol]-acetamido}-3-[5-(3,4-dihydroxyphenyl)oxazol-2-yl]-thiomethyl-3-cephem-4-carboxylate]",< 0.006,1.56,6.25,0.2,0.78,0.78,0.2,< 0.006,0.2,0.1,,0.1,0.2,0.05,0.05,0.05,0.2,0.39,1.56,,"MIC [10, 30]: 12.5 µg/mL; MIC [12, 30]: 3.12 µg/mL"
"CC(C)(O/N=C(\C(=O)N[C@@H]1C(=O)N2C(C(=O)O)=C(CSc3ncc(-c4ccccc4)o3)CS[C@H]12)c1csc(N)n1)C(=O)O [compound 22, disodium 7β-[2-(2-aminothiazol-4-yl)-2-(1-carboxylate-1-methylethoxyimino)acetamido]-3(5-phenyloxazol-2-yl)thiomethyl-3-cephem-4-carboxylate, reference compound]",,12.5,,12.5,12.5,,,0.1,6.25,< 0.006,6.25,0.78,6.25,3.12,3.12,> 100,> 100,,,12.5,"MIC [3, 30]: 3.12 µg/mL; MIC ([6]; *E. cloacae Nek 39, lactamase-producing strain, read-out: Minimum Inhibitory Concentration (MIC)): 25 µg/mL; MIC [7]: 3.12 µg/mL; MIC [10, 32]: 25 µg/mL; MIC [19, 33]: 50 µg/mL; MIC [20, 34]: 50 µg/mL"
"Nc1nc(/C(=N/OC(C(=O)O)c2ccccc2)C(=O)N[C@@H]2C(=O)N3C(C(=O)O)=C(CSc4nnc(-c5ccc(O)c(O)c5)o4)CS[C@H]23)cs1 (stereo partly drawn) [Ex. 15, disodium 7δ-[2-(2-aminothiazol-4-yl)-2-(α-carboxylatebenzyloxyimino)acetamido]-3-[5-(3,4-dihydroxyphenyl)-1,3,4-oxadiazol-2-yl]thiomethyl-3-cephem-4-carboxylate]",< 0.006,0.1,1.56,0.05,0.025,0.05,0.025,< 0.006,0.05,< 0.006,,0.0125,0.0125,< 0.006,3.12,0.05,,0.39,0.78,,"MIC [10, 25]: 0.78 µg/mL; MIC [12, 30]: 12.5 µg/mL; MIC ([18]; AKR17, 16 h, read-out: Minimum Inhibitory Concentration (MIC), Ps. aeruginosa AKR17, 10^6 CFU/ml): 0.78 µg/mL"
